Patent US12662688B2, “Site-selective deuteration of amino acids through dual protein catalysis” (Wisconsin Alumni Research Foundation, priority 2022, dated 2026)

Experiments:
DsaD/E complex [1] = assay: Preparative-scale Cα/Cβ-deuteration with DsaD and DsaE clarified lysates in D2O; assay type: biochemical, Streptomyces scopuliridis
Method: FIG. 5. ^1H NMR analysis of site-selective deuteration of L-Leu. Reaction conditions: 20 mM L-Leu 2.5% v/v DsaD clarified lysate, 2.5% v/v DsaE clarified lysate (when needed), 50 mM sodium phosphate (pD 8.4), 0.1 mM PLP, D2O (99.9% D).
FIG. 8. Preparative-scale and site-selective deuteration of amino acids. Conditions: 10-20 mM amino acid, 2.5% v/v DsaD clarified lysate, 2.5% v/v DsaE clarified lysate, 50 mM sodium phosphate (pD 8.4), 0.1 mM PLP, D2O (99.9%).
(§1) General procedure for milligram-scale biocatalytic deuteration: A 4-dram scintillation vial was charged with amino acid (10-20 mM final concentration), Na3PO4 buffer pD 8.4 (50 mM final concentration), PLP (100 μM final concentration), DsaD clarified cell lysate (2.5% v/v), DsaE clarified cell lysate (if applicable) (2.5% v/v), and D2O (or dH2O) to the appropriate final volume. The reaction vessel was placed in an incubator at 37° C. for 16 h. Reaction progress was monitored by UPLC-MS. After reaction completion, the reaction mixture was quenched with an equivalent volume of acetone and centrifuged (4,000 rpm, 10 min) to remove denatured protein. Supernatant was transferred to a clean beaker, the decanted supernatant was concentrated to remove acetone by rotary evaporation and loaded onto a preparative reverse-phase C18 column pre-equilibrated with water. Purification was performed via gradient elution on an Isolera One Flash Purification system (Biotage). Fractions bearing product (confirmed by UPLC-MS sampling of fraction tubes) were pooled and dried by rotary evaporation. The product was then resuspended in a minimal quantity of water, transferred to a pre-weighed 20 mL vial, frozen, and lyophilized.

DsaD/E system = assay: Two-step Cα/Cβ deuteration then Cα deuterium washout with DsaD in H2O; assay type: biochemical, Streptomyces scopuliridis; settings: after Cα washout with DsaD in water
Method: as §1
An initial reaction was performed with DsaD and DsaE to produce Cα,Cβ-deuterated L-Leu-2,3,3-d3 (25). Following reaction quenching with acetone, centrifugation to remove protein products, and removal of acetone and D2O via rotary evaporation, the dry crude product mixture was subjected to standard reaction conditions with DsaD in water. This reaction led to washout of the Cα deuterium, providing exclusively Cβ-deuterated L-Leu-3,3-d2 (44) with high levels of deuterium incorporation at Cβ (FIG. 5, 86% D incorporation and 98% ee). The site of H/D exchange in these reactions is dictated by the presence or absence of DsaE from the reaction conditions, enabling control of amino acid deuteration patterns.
We performed Cα/Cβ deuteration on a panel of amino acids, quenched the reactions and resubjected the crude product to Cα deuterium washout with DsaD in H2O. […]

DsaD/E complex [2] = assay: Analytical-scale Cα/Cβ H/D exchange with purified DsaD and DsaE; assay type: biochemical, Streptomyces scopuliridis; settings: 10 mM substrate, 5 μM DsaD, 50 μM DsaE (10:1), 37° C., 8 h
Method: FIGS. 3A-3C. Optimization of H/D exchange reactions and evaluation of the substrate scope. FIG. 3A. Optimization of Cβ-deuteration by increasing equivalents of partner protein DsaE. FIG. 3B. Evaluation of substrate scope of dual-protein-catalyzed Cα/Cβ deuteration under optimized conditions. FIG. 3C. UV-visible spectroscopy used to evaluate non-native substrate binding to DsaD. Reaction conditions: 10 mM amino acid substrate, 50 μM DsaE, 5 μM DsaD (10:1), 50 mM sodium phosphate (pD 8.4), 0.1 mM PLP, D2O, 37° C., 8 h. Reactions performed in duplicate, and percentage isotope incorporation is reported as the average of the replicates.
General procedure analytical scale deuteration reactions: α/β deuteration reactions were performed as follows. A 1 mL Eppendorf tube was charged with amino acid (10-20 mM final concentration), Na3PO4 buffer pD 8.4 (50 mM final concentration), PLP (100 μM final concentration), purified enzymes or appropriate lysate and D2O and to the appropriate final volume (typically 50 μL). Reactions were carried out at 37° C. for 8 h and quenched by the addition of 3 volumes of acetonitrile. Precipitated biomolecules were pelleted by centrifugation (16,000×g, 10 min) and samples were processed as described below.
(§2) Marfey's derivatization of analytical scale reactions: Derivatization of the resulting analytical scale product mixture (to increase overall signal and enable reverse phase chromatographic analysis) was achieved by treatment with Marfey's reagent^2 (1-fluoro-2-4-dinitrophenyl-5-L-alanine amide, L-FDAA) using the following protocol. 25 μL of quenched reaction mix (final amine concentration, 1.6 mM) was added to an Eppendorf tube with 50 μL of 15 mM NaHCO3 (final concentration, 5 mM) and 75 μL of 5 mM L-FDAA (final concentration, 2.5 mM). Derivatization reactions were carried out for 10-12 h before quenching with 150 μL of 60 mM HCl dissolved in acetonitrile. Final reaction analysis was carried out by UPLC-DAD-MS and quantitation as described below.
(§3) Quantitation of deuteration in analytical scale reactions: Deuteration reactions were analyzed by UPLC-DAD-MS with single ion recording (SIR) channels set to record a spectrum with the appropriate isotopic mass in positive mode. The area under the curve of recorded SIR peaks was obtained and normalized to account for natural isotopic abundance distributions (e.g. ^13C, ^15N, ^2H, ^34S, etc). Percent deuterium incorporation was calculated by the formula below. These measurements were carried out in an iterative fashion to measure Cα deuteration and Cβ deuteration.

DsaD = DsaD (Streptomyces scopuliridis, UniProt A0A0D5CCB2); assay: UV-vis spectroscopy of amino acid binding to DsaD; settings: 20 μM DsaD, pH 8.0, 25° C.
Method: UV-Vis Spectroscopy: Data were collected between 600 and 300 nm on a UV-2600 Shimadzu spectrophotometer (Shimadzu, Kyoto, Japan) with a semi-micro quartz cuvette (Starna Cells, Atascadero, California, USA) at 25° C. DsaD stock solutions were diluted to 20 μM in 50 mM sodium phosphate pH 8.0. For observation of substrate binding, amino acids were added at concentrations ranging from 2.5-10 mM. Spectra from 600-300 nm were collected after a 2-minute incubation period. Amino acid stocks were prepared as 100 mM stocks in deionized water.

DsaD/DsaE complex = DsaD/DsaE complex (Streptomyces scopuliridis, UniProt A0A0D5CCB2); assay: Steady-state kinetic analysis of H/D exchange of L-Ile by DsaD with partner protein DsaE; assay type: biochemical
Chain of DsaD/DsaE complex (A0A0D5CBB6 entry or part of it, one chain of several): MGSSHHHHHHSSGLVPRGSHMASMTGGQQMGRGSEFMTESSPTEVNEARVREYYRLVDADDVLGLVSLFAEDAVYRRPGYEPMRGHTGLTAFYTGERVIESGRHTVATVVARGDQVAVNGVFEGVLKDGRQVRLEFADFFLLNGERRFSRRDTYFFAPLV
Method: (§4) FIGS. 2A-2E. Steady-state kinetic analysis of H/D exchange by the Ile epimerization system. FIG. 2A. Steady-state kinetic analysis describing Cβ-deuteration^a of L-Ile under varied equivalents of partner enzyme DsaE. FIG. 2B. Steady-state kinetic analysis of Cβ-deuteration rates^a at a constant 1 mM L-Ile, measured against increasing equivalents of DsaE. FIG. 2C. Steady-state kinetic analysis of Cα-deuteration^a of L-Ile in the presence and absence of partner protein DsaE. FIG. 2D. Proposed mechanism of selective deuterium incorporation at Cα and Cβ catalyzed by dual protein catalysis. FIG. 2E. UV-visible spectrum of DsaD in the absence and presence of L-Ile.^a Measurement of initial rates was performed in duplicate at 24° C. Conditions: 0.1-10 mM L-Ile, 3 μM DsaD, 50 mM sodium phosphate (pD 8.4), and 0.1 mM PLP in D2O (99.9%). Proteins were exchanged into a 50 mM sodium phosphate-D2O (pD 8.4) solution prior to reaction initiation to minimize proton contamination (<1% H2O). Following quench with MeCN, crude reaction products were subjected to functionalization with Marfey's reagent (L-FDAA) to enable analysis by reverse-phase chromatography and quantification of isotope incorporation by mass spectrometry.
as §2, §3
Kinetic analysis of biocatalytic L-Ile deuteration: Initial rates of α- or β-deuteration were obtained by means of end-point assay using the quantitation protocol for analytical scale reactions as described above. All reagents were prepared in D2O (99.9% D) and protein stocks were dialyzed (3 exchanges over 3 h at 4° C.) into 50 mM sodium phosphate buffer dissolved in D2O (pD 8.4) using a slide-a-lyzer device with a 3,000 Da cutoff. Reactions were performed at 25° C. in 1 mL Eppendorf tubes. Michaelis constants (KM) for α- and β-deuteration of L-Ile were determined using the concentration range of 0.1-10 mM L-Ile using 3 μM DsaD. Partner protein (DsaE) concentrations were consistent within each experiment and separate experiments were performed using varied equivalents of partner protein (0-50 equiv). Initial velocities were measures in duplicate or triplicate for at least 6 different substrate concentrations for each set of conditions tested. Measurements of the impact of partner protein (DsaE) concentration on the initial rate of β-deuteration were carried out using 1 mM L-Ile, 3 μM DsaD and varying DsaE concentrations between 3 μM-600 μM (1-200 equiv). Under the minimal proton contamination conditions of this assay (99.9% D2O), Cα and Cβ deuteration are assumed to have occurred without back transfer to proton. The data were fit using the Michaelis-Menten equation implemented in Prism.

[3] = substrate: CC[C@H](C)[C@H](N)C(=O)O; assay: as above; assay type: biochemical, Streptomyces scopuliridis; settings: pH 8.4
Method: as §4, §2
as §3, with “These measurements were carried out in an iterative fashion to measure Cα deuteration and Cβ deuteration.” left out
Kinetic analysis of biocatalytic L-Ile deuteration: Initial rates of α- or β-deuteration were obtained by means of end-point assay using the quantitation protocol for analytical scale reactions as described above. […] Michaelis constants (KM) for α- and β-deuteration of L-Ile were determined using the concentration range of 0.1-10 mM L-Ile using 3 μM DsaD. […]

[4] = DsaD and DsaE clarified lysates, D2O, 5% 1H-water
[5] = lower substrate loading (10 mM)

[2H]C([2H])(C(C)C)[C@]([2H])(N)C(=O)O [L-Leu-2,3,3-d3]
deuterium incorporation at Cα (DsaD/E complex [1]; [4]): 95% | deuterium incorporation at Cβ (DsaD/E complex [1]; [4]): 86%

[2H]C([2H])(C(C)C)[C@H](N)C(=O)O [L-Leu-3,3-d2]
D incorporation at Cβ (DsaD/E system): 86%

[2H]C([2H])(c1ccccc1)[C@]([2H])(N)C(=O)O [L-Phe-2,3,3-d3]
deuterium incorporation at Cα (DsaD/E complex [1]; [5]): 95% | deuterium incorporation at Cβ (DsaD/E complex [1]; [5]): 85%

CSCC[C@H](N)C(=O)O [Met, methionine]
D-incorporation at Cα (DsaD/E complex [2]): high levels of exchange | D-incorporation at Cβ (DsaD/E complex [2]): moderate levels of D-incorporation

CSC[C@H](N)C(=O)O [S-Me-Cys, S-methylcysteine]
D-incorporation at Cα (DsaD/E complex [2]): high levels of exchange | D-incorporation at Cβ (DsaD/E complex [2]): moderate levels of D-incorporation

N[C@@H](CO)C(=O)O [Ser]
Cα and Cβ D-incorporation (DsaD/E complex [2]): did not undergo any deuteration

C[C@@H](O)[C@H](N)C(=O)O [Thr, threonine]
Cα and Cβ D-incorporation (DsaD/E complex [2]): did not undergo any deuteration | substrate binding to DsaD by UV-vis (DsaD): no binding was observed

N[C@@H](Cc1c[nH]c2ccccc12)C(=O)O [Trp, tryptophan]
D-incorporation at Cα (DsaD/E complex [2]): underwent Cα-deuteration | D-incorporation at Cβ (DsaD/E complex [2]): no Cβ-deuteration

CO[C@H](C)[C@H](N)C(=O)O [compound 30, L-(OMe)-Thr]
D-incorporation at Cα (DsaD/E complex [2]): high levels of deuteration | D-incorporation at Cβ (DsaD/E complex [2]): moderate deuterium incorporation and scrambling of configuration | substrate binding to DsaD by UV-vis (DsaD): enables productive binding

COc1ccc(C[C@H](N)C(=O)O)cc1 [compound 34, (OMe)-L-Tyr]
D-incorporation at Cα (DsaD/E complex [2]): 99% | D-incorporation at Cβ (DsaD/E complex [2]): 74%

CC(C)CCN [isopentylamine]
Cα and Cβ D-incorporation (DsaD/E complex [2]): Neither of these substrates underwent deuteration

CC[C@H](C)[C@H](N)C(=O)OC [methyl ester of Ile]
Cα and Cβ D-incorporation (DsaD/E complex [2]): Neither of these substrates underwent deuteration

B1: DsaE: small partner protein of aminotransferase DsaD, SEQ ID NO: 3, Streptomyces scopuliridis (protein, listed as Streptomyces scopuliridis)
chain: MTESSPTEVNEARVREYYRLVDADDVLGLVSLFAEDAVYRRPGYEPMRGHTGLTAFYTGERVIESGRHTVATVVARGDQVAVNGVFEGVLKDGRQVRLEFADFFLLNGERRFSRRDTYFFAPLV
modifications: DsaE
Km (DsaD/DsaE complex; 1 mM L-Ile, 3 μM DsaD, initial rate of Cβ-deuteration vs DsaE, read-out: KM for the formation of the active DsaD/DsaE complex): 40 ± 5 µM | DsaE concentration at plateau of Cβ-deuteration rate (DsaD/DsaE complex; 1 mM L-Ile, 3 μM DsaD, 100:1 ratio): around 0.3 mM | KM for association of DsaD and DsaE (DsaD/DsaE complex; as restated in conclusions): 40 µM

B2: DsaD/DsaE complex (Streptomyces scopuliridis) (protein)
chain: MGSSHHHHHHSSGLVPRGSHMASMTGGQQMGRGSEFMHIVTTPVARPLTAQERTERCAAPAFGTAFTEHMVSARWNPEQGWHDAELVPYGPLLLDPATVGLHYGQVVFEGLKAFRSHTGEVAVFRPDAHAERMRASARRLMMPEPPEELFLAAVDALVAQDQEWIPDDPGMSLYLRPILFASERTLALRPAREYRFLLVAFITEGYFGPAQRPVRVWVTDEYSRAAAGGTGAAKCAGNYAGSLLAQEEAQRKGCDQVVWLDPVERNWVEEMGGMNLFFVYEAGGSARLVTPPLTGSLLPGVTRDALLRLAPTLGVPVSEAPLSLEQWRADCASGAITEVFACGTAARISPVNEVSTKDGSWTIGAGAPAEGGVAAGEVTGRLSAALFGIQRGELPDSHSWMRPVSPARQSAIT
Km ([3]; other: 5 equiv. of DsaE (5:1 DsaE:DsaD)): 200 ± 10 µM | Km ([3]; other: 50 equiv. of DsaE (50:1 DsaE:DsaD)): 300 ± 90 µM | Km ([3]; other: one equivalent of DsaE, 3 μM DsaD): 2400 ± 680 µM | Km ([3]; other: with DsaE bound): 120 ± 20 µM
